Measurements as given in ChEMBL document CHEMBL3994622, “Design and synthesis of new RAF kinase-inhibiting antiproliferative quinoline derivatives. Part 2: Diarylurea derivatives” (Eur J Med Chem, 2017).

Tests used:
Assay type in all cases: functional
[1] = system: OVCAR-5; experiment: Growth inhibition of human OVCAR5 cells assessed as cell growth at 0.01 uM incubated for 48 hrs by sulforhodamine B assay relative to control; settings: OVCAR-5, 48 h, read-out: Activity
[2] = system: SK-MEL-28; experiment: Growth inhibition of human SK-MEL-28 cells assessed as cell growth at 100 uM incubated for 48 hrs by sulforhodamine B assay relative to control; settings: SK-MEL-28, 48 h, read-out: Activity
[3] = system: SK-OV-3; experiment: Growth inhibition of human SKOV3 cells assessed as cell growth at 1 uM incubated for 48 hrs by sulforhodamine B assay relative to control; settings: SK-OV-3, 48 h, read-out: Activity
[4] = system: U-251; experiment: Growth inhibition of human U251 cells assessed as cell growth at 1 uM incubated for 48 hrs by sulforhodamine B assay relative to control; settings: U-251, 48 h, read-out: Activity
[5] = system: OVCAR-4; experiment: Growth inhibition of human OVCAR4 cells assessed as cell growth at 100 uM incubated for 48 hrs by sulforhodamine B assay relative to control; settings: OVCAR-4, 48 h, read-out: Activity
[6] = system: SN12C; experiment: Growth inhibition of human SN12C cells assessed as cell growth at 10 uM incubated for 48 hrs by sulforhodamine B assay relative to control; settings: read-out: Activity
[7] = system: SN12C; experiment: Growth inhibition of human SN12C cells assessed as cell growth at 0.01 uM incubated for 48 hrs by sulforhodamine B assay relative to control; settings: read-out: Activity
[8] = system: NCI-H23; experiment: Growth inhibition of human NCI-H23 cells assessed as cell growth at 1 uM incubated for 48 hrs by sulforhodamine B assay relative to control; settings: NCI-H23, 48 h, read-out: Activity
[9] = system: U-251; experiment: Growth inhibition of human U251 cells assessed as cell growth at 100 uM incubated for 48 hrs by sulforhodamine B assay relative to control; settings: U-251, 48 h, read-out: Activity
[10] = system: HCC 2998; experiment: Growth inhibition of human HCC2998 cells assessed as cell growth at 0.1 uM incubated for 48 hrs by sulforhodamine B assay relative to control; settings: HCC 2998, 48 h, read-out: Activity
[11] = system: HCC 2998; experiment: Growth inhibition of human HCC2998 cells assessed as cell growth at 10 uM incubated for 48 hrs by sulforhodamine B assay relative to control; settings: HCC 2998, 48 h, read-out: Activity
[12] = system: CAKI-1; experiment: Growth inhibition of human Caki1 cells assessed as cell growth at 100 uM incubated for 48 hrs by sulforhodamine B assay relative to control; settings: CAKI-1, 48 h, read-out: Activity
[13] = system: OVCAR-8; experiment: Growth inhibition of human OVCAR8 cells assessed as cell growth at 0.1 uM incubated for 48 hrs by sulforhodamine B assay relative to control; settings: OVCAR-8, 48 h, read-out: Activity
[14] = system: HOP-92; experiment: Growth inhibition of human HOP92 cells assessed as cell growth at 0.01 uM incubated for 48 hrs by sulforhodamine B assay relative to control; settings: HOP-92, 48 h, read-out: Activity
[15] = system: NCI-H226; experiment: Growth inhibition of human NCI-H226 cells assessed as cell growth at 1 uM incubated for 48 hrs by sulforhodamine B assay relative to control; settings: NCI-H226, 48 h, read-out: Activity
[16] = system: HCC 2998; experiment: Growth inhibition of human HCC2998 cells assessed as cell growth at 1 uM incubated for 48 hrs by sulforhodamine B assay relative to control; settings: HCC 2998, 48 h, read-out: Activity
[17] = system: T47D; experiment: Growth inhibition of human T47D cells assessed as cell growth at 0.01 uM incubated for 48 hrs by sulforhodamine B assay relative to control; settings: read-out: Activity
[18] = system: 786-0; experiment: Growth inhibition of human 786-0 cells assessed as cell growth at 0.1 uM incubated for 48 hrs by sulforhodamine B assay relative to control; settings: 786-0, 48 h, read-out: Activity
[19] = system: ACHN; experiment: Growth inhibition of human ACHN cells assessed as cell growth at 10 uM incubated for 48 hrs by sulforhodamine B assay relative to control; settings: read-out: Activity
[20] = system: HT-29; experiment: Growth inhibition of human HT-29 cells assessed as cell growth at 0.01 uM incubated for 48 hrs by sulforhodamine B assay relative to control; settings: HT-29, 48 h, read-out: Activity
[21] = system: HOP-92; experiment: Growth inhibition of human HOP92 cells assessed as cell growth at 3 uM incubated for 48 hrs by sulforhodamine B assay relative to control; settings: HOP-92, 48 h, read-out: Activity
[22] = system: HOP-92; experiment: Growth inhibition of human HOP92 cells assessed as cell growth at 0.3 uM incubated for 48 hrs by sulforhodamine B assay relative to control; settings: HOP-92, 48 h, read-out: Activity
[23] = system: KM12; experiment: Growth inhibition of human KM12 cells assessed as cell growth at 0.003 uM incubated for 48 hrs by sulforhodamine B assay relative to control; settings: KM12, 48 h, read-out: Activity
[24] = system: Hs-578T; experiment: Growth inhibition of human Hs 578T cells assessed as cell growth at 0.03 uM incubated for 48 hrs by sulforhodamine B assay relative to control; settings: read-out: Activity
[25] = system: SN12C; experiment: Growth inhibition of human SN12C cells assessed as cell growth at 30 uM incubated for 48 hrs by sulforhodamine B assay relative to control; settings: read-out: Activity
[26] = system: OVCAR-8; experiment: Growth inhibition of human OVCAR8 cells assessed as cell growth at 0.3 uM incubated for 48 hrs by sulforhodamine B assay relative to control; settings: OVCAR-8, 48 h, read-out: Activity
[27] = system: OVCAR-4; experiment: Growth inhibition of human OVCAR4 cells assessed as cell growth at 0.003 uM incubated for 48 hrs by sulforhodamine B assay relative to control; settings: OVCAR-4, 48 h, read-out: Activity
[28] = system: ACHN; experiment: Growth inhibition of human ACHN cells assessed as cell growth at 0.03 uM incubated for 48 hrs by sulforhodamine B assay relative to control; settings: read-out: Activity
[29] = system: NCI-H460; experiment: Growth inhibition of human NCI-H460 cells assessed as cell growth at 0.003 uM incubated for 48 hrs by sulforhodamine B assay relative to control; settings: NCI-H460, 48 h, read-out: Activity
[30] = system: SF-268; experiment: Growth inhibition of human SF268 cells assessed as cell growth at 0.3 uM incubated for 48 hrs by sulforhodamine B assay relative to control; settings: SF-268, 48 h, read-out: Activity
[31] = system: MOLT-4; experiment: Growth inhibition of human MOLT4 cells assessed as cell growth at 0.3 uM incubated for 48 hrs by sulforhodamine B assay relative to control; settings: MOLT-4, 48 h, read-out: Activity
[32] = system: MDA-MB-435; experiment: Growth inhibition of human MDA-MB-435 cells assessed as cell growth at 3 uM incubated for 48 hrs by sulforhodamine B assay relative to control; settings: MDA-MB-435, 48 h, read-out: Activity
[33] = system: SNB-75; experiment: Growth inhibition of human SNB75 cells assessed as cell growth at 0.3 uM incubated for 48 hrs by sulforhodamine B assay relative to control; settings: SNB-75, 48 h, read-out: Activity
[34] = system: NCI-H23; experiment: Growth inhibition of human NCI-H23 cells assessed as cell growth at 0.003 uM incubated for 48 hrs by sulforhodamine B assay relative to control; settings: NCI-H23, 48 h, read-out: Activity
[35] = system: UO-31; experiment: Growth inhibition of human UO31 cells assessed as cell growth at 30 uM incubated for 48 hrs by sulforhodamine B assay relative to control; settings: UO-31, 48 h, read-out: Activity

Compound | growth at 0.01 µM [1] | growth at 100 µM [2] | growth at 1 µM [3] | growth at 1 µM [4] | growth at 100 µM [5] | growth at 10 µM [6] | growth at 0.01 µM [7] | growth at 1 µM [8] | growth at 100 µM [9] | growth at 0.1 µM [10] | growth at 10 µM [11] | growth at 100 µM [12] | growth at 0.1 µM [13] | growth at 0.01 µM [14] | growth at 1 µM [15] | growth at 1 µM [16] | growth at 0.01 µM [17] | growth at 0.1 µM [18] | growth at 10 µM [19] | growth at 0.01 µM [20] | other results
COc1cc2cc(Oc3ccc(NC(=O)Nc4cc(C(F)(F)F)cc(C(F)(F)F)c4)cc3)c(C)nc2cc1OC | 87% | -73% | 88% | 55% | -52% | -75% | 96% | 39% | -83% | 107% | -80% | -60% | 110% | 93% | 88% | 79% | 86% | 92% | -57% | 97% | –
Cc1nc2cc(O)c(O)cc2cc1Oc1ccc(NC(=O)Nc2ccc(Cl)c(Cl)c2)cc1 | – | – | – | – | – | – | – | – | – | – | – | – | – | – | – | – | – | – | – | – | growth at 3 µM [21]: 48%; growth at 0.3 µM [22]: 77%; growth at 0.003 µM [23]: 103%; growth at 0.03 µM [24]: 85%; growth at 30 µM [25]: -3%; growth at 0.3 µM [26]: 94%; growth at 0.003 µM [27]: 97%; growth at 0.03 µM [28]: 107%; growth at 0.003 µM [29]: 102%; growth at 0.3 µM [30]: 107%; growth at 0.3 µM [31]: 106%; growth at 3 µM [32]: 71%; growth at 0.3 µM [33]: 75%; growth at 0.003 µM [34]: 96%; growth at 30 µM [35]: -51%
COc1cc2cc(Oc3ccc(NC(=O)Nc4ccc(Cl)c(Cl)c4)cc3)c(C)nc2cc1OC | 103% | -77% | 112% | 83% | -85% | 19% | 93% | 89% | -100% | 101% | 34% | -64% | 100% | 95% | 106% | 96% | 100% | 95% | 5% | 108% | –
COc1cc2cc(Oc3ccc(NC(=O)Nc4ccc(Cl)c(C(F)(F)F)c4)cc3)c(C)nc2cc1OC | – | – | – | – | – | – | – | – | – | – | – | – | – | – | – | – | – | – | – | – | growth at 3 µM [21]: -21%; growth at 0.3 µM [22]: 84%; growth at 0.003 µM [23]: 100%; growth at 0.03 µM [24]: 109%; growth at 30 µM [25]: -56%; growth at 0.3 µM [26]: 96%; growth at 0.003 µM [27]: 93%; growth at 0.03 µM [28]: 97%; growth at 0.003 µM [29]: 106%; growth at 0.3 µM [30]: 100%; growth at 0.3 µM [31]: 98%; growth at 3 µM [32]: 9%; growth at 0.3 µM [33]: 90%; growth at 0.003 µM [34]: 97%; growth at 30 µM [35]: -71%
